Experimental data taken from US9492436B2, “Azabenzimidazole derivatives” (Boehringer Ingelheim International GmbH, priority 2013, dated 2016).

Target: T1, AMPK complex 1 (containing alpha1beta1gamma1) (Homo sapiens, UniProt Q13131+Q9Y478)
T1 construct: GST (Glutathion S transferase) (N); made in house; host or cells: baculovirus; virus made in Sf9, expression in High Five cells
Assay: In vitro AMPK activation assay (ADP-Glo Kinase Assay)
Type: biochemical
Details: 30 μM ATP, 1 μM peptide, 60 min, room temperature
Source text: Activated AMPK complex 1 (containing alpha1beta1gamma1) was obtained from baculovirus expression system. The gene encoding AMPK alpha1 was cloned into the pACG2T vector (BD Biosciences) to obtain a N-terminal Glutathion S transferase (GST)-fusion protein. The genes encoding AMPK beta 1 and gamma1 were cloned into the p2Bac dual multiple cloning site vector (Invitrogen) with beta1 under the control of the p10 promoter and gamma1 under the control of the PH promoter. The transfer vectors containing AMPK were co-transfected individually with AcPNV BacMagic-3 DNA (EMD Millipore) in Sf9 cells and the recombinant baculoviruses were harvested after 5 days, followed by 3 rounds of amplification of the virus stock in Sf9 cells. AMPK (alpha1beta1gamma1) was expressed in High Five 5 cells by co-infection of recombinant alpha1 virus and recombinant beta1/gamma1 virus for 72 h at 27° C. Cells were harvested by centrifugation and lysed by 3 freeze/thaw cycles in PBS with 10% glycerol and protease inhibitor cocktail (Roche). After centrifugation AMPK a1b1g1 in the supernatant was captured by immobilized glutathione (GE Healthcare), impurities were washed away with PBS and AMPK alpha1beta1gamma1 was eluted with PBS containing 20 mM reduced gluthathione. The protein buffer was then exchanged to PBS with 10% glycerol and protein concentration was determined by UV absorbance.
The white 384-well Optiplates (cat.no. 6007299) were purchased from PerkinElmer. The V9101 ADP-Glo Kinase Assay and ultra pure ATP (V915A) was purchased from Promega. The substrate for AMPK (NH2-HMRSAMSGLHLVKRR_CONH2) was purchased from Upstate (12-355).
Compounds were tested in either serial dilutions or single dose concentrations. The serial compound dilutions were prepared in 100% DMSO automatically. The final DMSO concentration in the assay was 0.1%.
The Compound Stock Solutions were 10 mM in 100% DMSO. The compounds were solubilised at room temperature.
In the 384-well plates 1.25 ul of test compound in assay buffer was mixed with 1.25 ul of AMPK and 1.25 μl of the peptide (final concentration of 1 μM) and 1.25 μl of ATP (final concentration of 30 μM), both dissolved in assay buffer. This step was followed by an incubation time of 60 min. Then 5 μl of ADP Glo Reagent was added. This was followed by 40 min of incubation. Then 10 μl of Kinase Detection Reagent was admixed. The plates were sealed and after an incubation period of 30 min, the luminescence signal was measured in an Envision reader. All incubation steps were accomplished at room temperature.
Each assay microtiter plate contained wells with vehicle controls instead of compound (0.1% DMSO in water) as reference for the low signal (100% CTL, low signal), and wells with serial dilutions of AMP (final 30 μM) as reference for high signals.
The luminescence signal generated was proportional to the ADP concentration produced and was correlated with AMPK activity. The analysis of the data was performed by the calculation of the percentage of ATP consumption of AMPK in the presence of the test compound compared to the consumption of ATP in the presence of AMPK without compound. (RLU(sample)/RLU(low control))*100[RLU=relative luminescence units]
An activator of the AMPK enzyme gave values above 100% CTL.
EC50 values based on dose response curves are calculated with the XIFIT software using the 4 Parameter Logistic Model or Sigmoidal Dose-Response Model.

T1 sequence (Q13131 whole entry): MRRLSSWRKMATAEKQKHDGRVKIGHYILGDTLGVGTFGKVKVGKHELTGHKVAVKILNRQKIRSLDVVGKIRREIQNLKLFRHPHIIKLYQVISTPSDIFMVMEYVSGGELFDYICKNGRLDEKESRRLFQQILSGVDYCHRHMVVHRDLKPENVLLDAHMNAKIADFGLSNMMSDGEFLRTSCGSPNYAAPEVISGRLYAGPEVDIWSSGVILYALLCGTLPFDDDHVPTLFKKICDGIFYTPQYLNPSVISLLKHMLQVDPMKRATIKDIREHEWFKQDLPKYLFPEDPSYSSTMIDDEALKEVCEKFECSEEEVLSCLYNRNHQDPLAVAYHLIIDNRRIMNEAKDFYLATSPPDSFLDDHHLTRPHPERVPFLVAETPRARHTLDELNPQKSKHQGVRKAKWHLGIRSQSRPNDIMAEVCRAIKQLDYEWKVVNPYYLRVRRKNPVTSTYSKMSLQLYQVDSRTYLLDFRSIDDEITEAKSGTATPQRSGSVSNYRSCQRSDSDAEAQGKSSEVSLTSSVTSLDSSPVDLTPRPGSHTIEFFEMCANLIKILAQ
T1 sequence (Q9Y478 whole entry): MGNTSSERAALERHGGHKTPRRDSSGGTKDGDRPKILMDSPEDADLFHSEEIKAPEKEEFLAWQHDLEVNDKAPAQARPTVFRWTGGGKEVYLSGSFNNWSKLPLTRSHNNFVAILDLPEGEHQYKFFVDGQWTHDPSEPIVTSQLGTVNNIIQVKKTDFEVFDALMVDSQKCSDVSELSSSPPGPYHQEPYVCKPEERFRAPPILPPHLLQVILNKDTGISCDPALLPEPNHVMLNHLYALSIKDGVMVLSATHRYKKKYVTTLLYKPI
T1 sequence (P54619 whole entry partner): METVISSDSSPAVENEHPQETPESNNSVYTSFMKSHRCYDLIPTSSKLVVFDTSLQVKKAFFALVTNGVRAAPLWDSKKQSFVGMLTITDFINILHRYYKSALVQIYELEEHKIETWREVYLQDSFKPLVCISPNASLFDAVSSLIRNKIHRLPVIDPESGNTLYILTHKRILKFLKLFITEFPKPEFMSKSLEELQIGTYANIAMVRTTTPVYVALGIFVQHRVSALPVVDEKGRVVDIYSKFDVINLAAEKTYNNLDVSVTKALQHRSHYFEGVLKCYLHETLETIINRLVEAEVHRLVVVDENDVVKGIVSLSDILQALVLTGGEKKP

Row | SMILES | EC50 [nM]
1 | CS(=O)(=Nc1ccc(-c2nc3[nH]c(O[C@@H]4CO[C@H]5[C@@H]4OC[C@H]5O)nc3cc2Cl)cc1)c1ccncc1 (stereo partly drawn) [Example 26, N-(4-(6-Chloro-2-((3R,3aR,6R,6aR)-6-hydroxyhexahydrofuro[3,2-b]furan-3-yloxy)-3H-imidazo[4,5-b]pyridin-5-yl)phenyl)-S-methyl-S-(pyridin-4-yl)-sulfoximide] | 145
2 | CN=S(C)(=O)c1ccc(N2CCN(c3nc4[nH]c(O[C@@H]5CO[C@H]6[C@@H]5OC[C@H]6O)nc4cc3Cl)CC2)cc1 (stereo partly drawn) [Example 29, (3R,3aR,6R,6aR)-6-(6-Chloro-5-(4-(4-(N,S-dimethylsulfonimidoyl)phenyl)piperazin-1-yl)-3H-imidazo[4,5-b]pyridin-2-yloxy)hexahydrofuro[3,2-b]furan-3-ol] | 725
3 | CS(C)(=O)=Nc1ccc(-c2ccc(-c3nc4[nH]c(O[C@@H]5CO[C@H]6[C@@H]5OC[C@H]6O)nc4cc3Cl)cc2)nc1 [Example 30, N-(2-(4-(6-Chloro-2-((3R,3aR,6R,6aR)-6-hydroxyhexahydrofuro[3,2-b]furan-3-yloxy)-3H-imidazo[4,5-b]pyridin-5-yl)phenyl)pyridin-5-yl)-S,S-dimethylsulfoximide] | 2
4 | CS(C)(=O)=Nc1ccc(-c2ccc(-c3nc4[nH]c(O[C@@H]5CO[C@H]6[C@@H]5OC[C@H]6O)nc4cc3Cl)cn2)cc1 [Example 32, N-(4-{5-[6-Chloro-2-((3R,3aR,6R,6aR)-6-hydroxyhexahydrofuro[3,2-b]furan-3-yloxy)-3H-imidazo[4,5-b]pyridin-5-yl]-pyridin-2-yl}-phenyl)-S,S-dimethylsulfoximide] | 13
5 | CS(=N)(=O)[C@H]1CC[C@@H](c2ccc(-c3nc4[nH]c(O[C@@H]5CO[C@H]6[C@@H]5OC[C@H]6O)nc4cc3Cl)cc2)CC1 (stereo partly drawn) [Example 33, cis-(3R,3aR,6R,6aR)-6-(6-Chloro-5-[4-{4-(S-methylsulfonimidoyl)-cyclohexyl}-phenyl]-3H-imidazo[4,5-b]pyridin-2-yloxy)-hexahydro-furo[3,2-b]furan-3-ol] | 265
6 | CS(C)(=O)=NCc1cccc(-c2ccc(-c3nc4[nH]c(O[C@@H]5CO[C@H]6[C@@H]5OC[C@H]6O)nc4cc3Cl)cc2)n1 [Example 35, N-(2-(4-(6-Chloro-2-((3R,3aR,6R,6aR)-6-hydroxyhexahydrofuro[3,2-b]furan-3-yloxy)-3H-imidazo[4,5-b]pyridin-5-yl)phenyl)pyridin-6-ylmethyl)-S,S-dimethylsulfoximide] | 87
7 | CS(C)(=O)=Nc1ccnc(-c2ccc(-c3nc4[nH]c(O[C@@H]5CO[C@H]6[C@@H]5OC[C@H]6O)nc4cc3Cl)cc2)c1 [Example 37, N-(2-{4-[6-Chloro-2-((3R,3aR,6R,6aR)-6-hydroxyhexahydrofuro[3,2-b]furan-3-yloxy)-3H-imidazo[4,5-b]pyridin-5-yl]-phenyl}-pyridin-4-yl)-S,S-dimethylsulfoximide] | 47
8 | CS(C)(=O)=NCc1cccc(-c2ccc(-c3nc4[nH]c(O[C@@H]5CO[C@H]6[C@@H]5OC[C@H]6O)nc4cc3Cl)cc2)c1 [Example 38, N-(4′-(6-Chloro-2-((3R,3aR,6R,6aR)-6-hydroxyhexahydrofuro[3,2-b]furan-3-yloxy)-3H-imidazo[4,5-b]pyridin-5-yl)biphenyl-3-ylmethyl)-S,S-dimethylsulfoximide] | 704
9 | CS(C)(=O)=Nc1cnc(-c2ccc(-c3nc4[nH]c(O[C@@H]5CO[C@H]6[C@@H]5OC[C@H]6O)nc4cc3Cl)cc2)cn1 [Example 39, N-(5-{4-[6-Chloro-2-((3R,3aR,6R,6aR)-6-hydroxyhexahydrofuro[3,2-b]furan-3-yloxy)-3H-imidazo[4,5-b]pyridin-5-yl]-phenyl}-pyrazin-2-yl)-S,S-dimethylsulfoximide] | 8
10 | N=S1(=O)CC=C(c2ccc(-c3nc4[nH]c(O[C@@H]5CO[C@H]6[C@@H]5OC[C@H]6O)nc4cc3Cl)cc2)CC1 (stereo partly shown) [Example 40] | 50
11 | CS(=N)(=O)c1cccc(-c2ccc(-c3nc4[nH]c(O[C@@H]5CO[C@H]6[C@@H]5OC[C@H]6O)nc4cc3Cl)cc2)c1 (stereo partly drawn) [Example 41, (3R,3aR,6R,6aR)-6-(6-Chloro-5-(3′-(S-methylsulfonimidoyl)biphenyl-4-yl)-3H-imidazo[4,5-b]pyridin-2-yloxy)hexahydrofuro[3,2-b]furan-3-ol] | 209
12 | CS(C)(=O)=Nc1ccc(-c2ncc(-c3nc4[nH]c(O[C@@H]5CO[C@H]6[C@@H]5OC[C@H]6O)nc4cc3Cl)cn2)cc1 [Example 42, N-(4-{5-[6-Chloro-2-((3R,3aR,6R,6aR)-6-hydroxyhexahydrofuro[3,2-b]furan-3-yloxy)-3H-imidazo[4,5-b]pyridin-5-yl]-pyrimidin-2-yl}-phenyl)-S,S-dimethylsulfoximide] | 410
13 | CS(C)(=O)=Nc1ccc2c(c1)CN(c1ccc(-c3nc4[nH]c(O[C@@H]5CO[C@H]6[C@@H]5OC[C@H]6O)nc4cc3Cl)cc1)C2 [Example 43, N-(2-{4-[6-Chloro-2-((3R,3aR,6R,6aR)-6-hydroxyhexahydrofuro[3,2-b]furan-3-yloxy)-3H-imidazo[4,5-b]pyridin-5-yl]-phenyl}-2,3-dihydro-1H-isoindol-5-yl)-S,S-dimethylsulfoximide] | 293
14 | CS(C)(=O)=Nc1ccc2c(n1)CN(c1ccc(-c3nc4[nH]c(O[C@@H]5CO[C@H]6[C@@H]5OC[C@H]6O)nc4cc3Cl)cc1)C2 [Example 44, N-(6-{4-[6-Chloro-2-((3R,3aR,6R,6aR)-6-hydroxyhexahydrofuro[3,2-b]furan-3-yloxy)-3H-imidazo[4,5-b]pyridin-5-yl]-phenyl}-6,7-dihydro-5H-pyrrolo[3,4-b]pyridin-2-yl)-S,S-dimethylsulfoximide] | 66
15 | CS(C)(=O)=NCc1ccnc(-c2ccc(-c3nc4[nH]c(O[C@@H]5CO[C@H]6[C@@H]5OC[C@H]6O)nc4cc3Cl)cc2)c1 [Example 46, N-(2-(4-(6-Chloro-2-((3R,3aR,6R,6aR)-6-hydroxyhexahydrofuro[3,2-b]furan-3-yloxy)-3H-imidazo[4,5-b]pyridin-5-yl)phenyl)pyridin-4-ylmethyl)-S,S-dimethylsulfoximide] | 37
16 | CS(C)(=O)=Nc1cccc(-c2ccc(-c3nc4[nH]c(O[C@@H]5CO[C@H]6[C@@H]5OC[C@H]6O)nc4cc3Cl)cc2)n1 [Example 47, N-(6-{4-[6-Chloro-2-((3R,3aR,6R,6aR)-6-hydroxyhexahydrofuro[3,2-b]furan-3-yloxy)-3H-imidazo[4,5-b]pyridin-5-yl]-phenyl}-pyridin-2-yl)-S,S-dimethylsulfoximide] | 67
17 | CS(C)(=O)=NCc1ccc(-c2ccc(-c3nc4[nH]c(O[C@@H]5CO[C@H]6[C@@H]5OC[C@H]6O)nc4cc3Cl)cc2)nc1 [Example 48, N-(6-(4-(6-Chloro-2-((3R,3aR,6R,6aR)-6-hydroxyhexahydrofuro[3,2-b]furan-3-yloxy)-3H-imidazo[4,5-b]pyridin-5-yl)phenyl)pyridin-3-ylmethyl)-S,S-dimethylsulfoximide] | 16
18 | CS(=N)(=O)c1cnc(-c2ccc(-c3nc4[nH]c(O[C@@H]5CO[C@H]6[C@@H]5OC[C@H]6O)nc4cc3Cl)cc2)nc1 (stereo partly drawn) [Example 49, (3R,3aR,6R,6aR)-6-(6-Chloro-5-(4-(5-(S-methylsulfonimidoyl)pyrimidin-2-yl)phenyl)-3H-imidazo[4,5-b]pyridin-2-yloxy)hexahydrofuro[3,2-b]furan-3-ol] | 26
19 | CS(C)(=O)=NCc1cc(-c2ccc(-c3nc4[nH]c(O[C@@H]5CO[C@H]6[C@@H]5OC[C@H]6O)nc4cc3Cl)cc2)ccn1 [Example 53] | 56
